Where a name gives a salt, the structure may show the parent alone.
Molecular target: human PDE10A (UniProt Q9Y233)
Assay: Measurement of PDE activity (recombinant enzyme, HTRF cAMP kit)
Assay type: biochemical
Details: Table 1, substrate 20 nM for PDE10, 60 minutes at 29 C, read-out: IC50
Outline: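 Recombinant human PDE10A (10–250 pM range across PDEs) with 20 nM cAMP substrate in 20 mM Tris-HCl pH 7.5, 10 mM MgCl2, 0.1% BSA, compound pre-mixed with enzyme. Ran 60 min at 29 °C. Remaining cAMP read by HTRF, converted to % of uninhibited activity, and IC50 fitted.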

Sequence of human PDE10A (Q9Y233 290-1055 limits assumed): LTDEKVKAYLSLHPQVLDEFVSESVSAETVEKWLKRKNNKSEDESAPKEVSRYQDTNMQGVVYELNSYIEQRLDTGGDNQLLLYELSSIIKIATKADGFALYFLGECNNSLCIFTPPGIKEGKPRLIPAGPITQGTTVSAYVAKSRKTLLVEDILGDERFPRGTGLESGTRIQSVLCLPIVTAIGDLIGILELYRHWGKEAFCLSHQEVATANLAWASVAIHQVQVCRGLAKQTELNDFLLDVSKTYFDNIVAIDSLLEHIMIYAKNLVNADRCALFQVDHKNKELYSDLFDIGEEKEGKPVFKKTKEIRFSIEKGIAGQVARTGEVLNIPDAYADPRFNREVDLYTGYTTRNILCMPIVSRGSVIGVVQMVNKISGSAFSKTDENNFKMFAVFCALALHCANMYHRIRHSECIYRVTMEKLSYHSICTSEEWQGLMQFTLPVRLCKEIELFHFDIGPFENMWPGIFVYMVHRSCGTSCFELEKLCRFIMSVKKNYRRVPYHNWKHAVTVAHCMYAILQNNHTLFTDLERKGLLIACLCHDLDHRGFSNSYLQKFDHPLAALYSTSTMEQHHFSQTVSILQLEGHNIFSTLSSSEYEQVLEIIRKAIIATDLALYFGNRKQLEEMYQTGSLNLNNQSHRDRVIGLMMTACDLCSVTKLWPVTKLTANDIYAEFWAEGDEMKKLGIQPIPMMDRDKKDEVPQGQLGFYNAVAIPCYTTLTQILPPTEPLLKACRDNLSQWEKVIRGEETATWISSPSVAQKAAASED

With `Cn1nccc1-c1csc2ccn(CCc3ccc4ccccc4n3)c(=O)c12` [Example 204, 3-(1-Methyl-1H-pyrazol-5-yl)-5-[2-(quinolin-2-yl)ethyl]thieno[3,2-c]pyridin-4(5)H-one hydrochloride] the IC50 was under 100 nM.
`O=c1c2c(-c3ccncc3)csc2ccn1CCc1ccc2ccccc2n1` [Example 205, 3-(Pyridin-4-yl)-5-[2-(quinolin-2-yl)ethyl]thieno[3,2-c]pyridin-4(5H)-one hydrochloride] showed an IC50 of under 100 nM.
Work on `O=c1c2c(-c3cncnc3)csc2ccn1CCc1ccc2ccccc2n1` [Example 206] yielded an IC50 of under 100 nM.
`O=C1Cc2ccc(-c3csc4ccn(CCc5ccc6ccccc6n5)c(=O)c34)cc2N1` [Example 207, 3-(2-Oxoindolin-6-yl)-5-[2-(quinolin-2-yl)ethyl]thieno[3,2-c]pyridin-4(5H)-one] showed an IC50 of under 100 nM.
With `O=c1c2c(-c3cccc(O)c3)csc2ccn1CCc1ccc2ccccc2n1` [Example 208, 3-(3-Hydroxyphenyl)-5-[2-(quinolin-2-yl)ethyl]thieno[3,2-c]pyridin-4(5H)-one hydrochloride] the IC50 was under 100 nM.
`CCc1ccc(CCn2ccc3scc(-c4ccncc4)c3c2=O)nc1` [Example 209, 5-[2-(5-Ethylpyridin-2-yl)ethyl]-3-(pyridin-4-yl)thieno[3,2-c]pyridin-4(5H)-one hydrochloride] gave an IC50 of 200 to 500 nM.
`O=c1c2c(-c3ccncc3)csc2ccn1CCc1cn2ccccc2n1` [Example 210, 5-[2-(Imidazo[1,2-a]pyridin-2-yl)ethyl]-3-(pyridin-4-yl)thieno[3,2-c]pyridin-4(5H)-one hydrochloride] gave an IC50 of under 100 nM.
`O=c1c2c(N3CCOCC3)csc2ccn1CCc1ccc2ccccc2n1` [Example 211, 3-(Morpholin-4-yl)-5-[2-(quinolin-2-yl)ethyl]thieno[3,2-c]pyridin-4(5H)-one hydrochloride] showed an IC50 of 200 to 500 nM.
For `O=c1c2c(C3=CCNCC3)csc2ccn1CCc1ccc2ccccc2n1` [Example 213, 5-(2-(Quinolin-2-yl)ethyl)-3-(1,2,3,6-tetrahydropyridin-4-yl)thieno[3,2-c]pyridin-4(5H)-one hydrochloride], the IC50 was 200 to 500 nM.
With `O=c1c2c(C3CCNCC3)csc2ccn1CCc1ccc2ccccc2n1` [Example 215, 3-(Piperidin-4-yl)-5-[2-(quinolin-2-yl)ethyl]thieno[3,2-c]pyridin-4(5H)-one trifluoroacetate] the IC50 was 100 to 200 nM.
For `Cc1csc2c(-c3ccncc3)cn(CCc3ccc4ccccc4n3)c(=O)c12` [Example 216, 3-Methyl-7-(pyridin-4-yl)-5-(2-(quinolin-2-yl)ethyl)thieno[3,2-c]pyridin-4(5H)-one], the IC50 was under 100 nM.
For `O=c1c2c(N[C@@H]3CCNC3)cccc2cnn1CCc1cn2ccccc2n1` [Example 219, 2-[2-(Imidazo[1,2-a]pyridin-2-yl)ethyl]-8-[(3R)-pyrrolidin-3-ylamino]phthalazin-1(2H)-one dihydrochloride], the IC50 was under 100 nM.
Work on `O=c1c2c(-c3ccncc3)cccc2ccn1/C=C/c1ccc2ccccc2n1` [Example 221, (E)-8-(Pyridin-4-yl)-2-(2-(quinolin-2-yl)vinyl)isoquinolin-1(2H)-one] yielded an IC50 of under 100 nM.
For `O=c1c2c(-c3ccncc3)cccc2ccn1CCc1ccc2ccccc2n1` [Example 223, 8-(Pyridin-4-yl)-2-(2-quinolin-2-yl-ethyl)isoquinolin-1(2H)-one], the IC50 was under 100 nM.
Work on `O=c1c2c(-c3ccncc3)cccc2cnn1/C=C/c1ccc2ccccc2n1` [Example 225] yielded an IC50 of under 100 nM.
Work on `O=c1c2c(-c3ccncc3)coc2ccn1CCc1ccc2ccccc2n1` [Example 228, 3-(Pyridin-4-yl)-5-(2-(quinolin-2-yl)ethyl)furo[3,2-c]pyridin-4(5H)-one hydrochloride] yielded an IC50 of under 100 nM.
With `O=c1c2c(-c3ccncc3)coc2ccn1CCc1nc2ccccc2[nH]1` [Example 229, 5-(2-(1H-Benzo[d]imidazol-2-yl)ethyl)-3-(pyridin-4-yl)furo[3,2-c]pyridin-4(5H)-one hydrochloride] the IC50 was under 100 nM.

Reference: patent US20130116241A1, “NOVEL INHIBITOR COMPOUNDS OF PHOSPHODIESTERASE TYPE 10A” (AbbVie Inc., priority 2011, published 2013)
